Assays:
[1] = tested on: oxazolone-induced delayed-type-hypersensitivity (DTH) responses; assay: oxazolone-induced ear edema model (delayed-type-hypersensitivity) in mice, therapeutic topical treatment; assay type: in vivo, mice (female BALB/c); conditions: for Relative oxazolone specific ear swelling, average: topical 1 h and 7 h after challenge, 24 h after challenge, placebo 95%; for Absolute oxazolone specific ear swelling, average: topical on right ear 1 h and 7 h after challenge, measured 24 h after challenge, placebo 217 μm
Experimental: DTH can be induced by skin sensitization with oxazolone, followed by a topical ear challenge with oxazolone 7 days later. This challenge results in development of an inflammatory response in the ear within 24 hours, which is dependent on antigen-specific T cells. The DTH reaction is associated with the recruitment of a variety of inflammatory cells and development of edema. The latter can be measured by quantifying changes in ear thickness before and after ear challenge. The oxazolone-induced ear edema model in mice is therefore a model of delayed contact hypersensitivity that permits the quantitative evaluation of the topical and systemic anti-inflammatory activity of a compound following topical administration. Female mice (6-8 wks—BALB/c) were acclimatization for 7 days in 12 hours light/12 hours dark cycle, at Temperature: 20-24° C., humidity: 55%±10%, on a standard laboratory mouse diet. Day 0: Mice were anesthetized by inhalation of 3-4% isoflurane in a 1:1 mixture of oxygen and medical air. The abdominal skin was shaved to enable topical application of 100 μl 1.5% (w/v) oxazolone in 100% acetone. Day 7: All ears were wiped with ethanol to optimize exposure to oxazolone. Subsequently, the right ear of the sensitized animals were challenged by topical administration of 20 μl (10 μl on each side of the ear) 2.5% (w/v) oxazolone in 100% ethanol. The left ears were treated with 20 μl 100% ethanol. Day 8: After 24 hours, mice were sacrificed and the right ears were collected to enable analysis by (immuno)-histochemistry and/or histology. The vehicle used to carry AVX001 was paraffin. The placebo was paraffin. Approx 20 μl (10 μl on each side of the right ear) of composition is applied to effect the test. 4 groups (8 mice per group) were studied. Group 1: Placebo, 1 hour and 7 hours after challenge Group 2: Compound 0.2 wt %, 1 hour and 7 hours after challenge Group 3: Compound 0.05 wt %, 1 hour and 7 hours after challenge Group 4: Compound 0.01 wt %, 1 hour and 7 hours after challenge Day 7: Ear thickness of both ears was measured directly before the ear-challenge (5 measurements per ear) using a Mitutoyo micrometer (accuracy 0.01 mm). Day 8: 24 Hours after challenge, thickness of left and right ears was measured again. The increase in ear thickness of each ear was calculated by subtracting the mean ear thickness measured on day 7 (before challenge) from the thickness on day 8 (24 hrs after challenge). To determine the oxazolone specific increase in ear thickness, the calculated increase in ear thickness of the left ear was subtracted from that of the right ear. Both absolute (Delta μm) and relative (%) increases in ear thickness were calculated. Increase in ear thickness (Delta μm): Thickness day 8 (μm)−Thickness day 7 (μm) Oxazolone specific increase (Delta μm): Increase right ear (Delta μm)−Increase left ear (Delta μm) Relative increase in ear thickness (%): (Increase in ear thickness (Delta μm)/Thickness day 7 (μm))*100% Relative oxazolone specific increase in ear thickness (%): Relative increase right ear (%)−Relative increase left ear (%) Data of groups was examined by one-way analysis of variance, and individual groups were then compared with Dunnets test or Students t-test. Data was given as mean±SD, if not stated otherwise. Values of p<0.05 were considered significant.

group IVa PLA2 enzyme = target: T1, group IVa PLA2 enzyme (Mus musculus, UniProt P47713); assay: PGE2 EIA analysis of ear tissue homogenates after treatment; assay type: in vivo, mice; conditions: treated versus paraffin placebo ear tissue, right ear biopsies
T1 construct: the right ear biopsies were homogenized in 400 μl lysisbuffer; from tissue; host or cells: mouse ear tissue (in vivo treatment, ear biopsies homogenised)
T1 sequence (P47713 1-748): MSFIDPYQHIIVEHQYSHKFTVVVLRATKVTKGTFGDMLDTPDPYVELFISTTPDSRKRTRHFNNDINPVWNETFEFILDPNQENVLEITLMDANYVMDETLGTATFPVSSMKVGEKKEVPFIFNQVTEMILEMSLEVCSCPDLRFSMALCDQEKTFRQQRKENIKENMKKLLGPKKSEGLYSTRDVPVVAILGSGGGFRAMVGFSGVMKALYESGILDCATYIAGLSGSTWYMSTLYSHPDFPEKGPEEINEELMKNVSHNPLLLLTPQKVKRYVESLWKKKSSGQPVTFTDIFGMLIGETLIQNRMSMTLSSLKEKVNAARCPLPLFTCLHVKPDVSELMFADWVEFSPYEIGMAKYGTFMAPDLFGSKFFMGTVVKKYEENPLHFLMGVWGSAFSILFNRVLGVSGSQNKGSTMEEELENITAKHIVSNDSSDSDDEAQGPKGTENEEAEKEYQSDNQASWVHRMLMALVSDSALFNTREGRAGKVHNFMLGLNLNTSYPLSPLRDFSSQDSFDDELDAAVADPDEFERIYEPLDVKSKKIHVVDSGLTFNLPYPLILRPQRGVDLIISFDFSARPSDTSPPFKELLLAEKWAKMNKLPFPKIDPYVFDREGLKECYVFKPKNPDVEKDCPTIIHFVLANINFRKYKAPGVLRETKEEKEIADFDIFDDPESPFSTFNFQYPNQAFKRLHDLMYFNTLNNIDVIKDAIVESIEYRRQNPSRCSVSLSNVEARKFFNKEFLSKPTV
Experimental: Using a PreCellys homogenisator, the right ear biopsies were homogenized in 400 μl lysisbuffer containing 10 μM indomethasin. The lysate was stored at −80° C. until further processing. PGE2 EIA analysis ear homogenates was performed according to kit protocol (Cayman Chemicals). Plasma samples were diluted 1:60 and 1:180 in EIA buffer. The samples were hybridized over-night (18 hrs, 4° C.). The EIA plates were read using a Multiscan plate reader (Ascent Labsystems, OD550 nm). Ascent software for Multiscan, Version 2.4.1 was used to obtain the data. PGE2 results are shown as mean±SD relative to the paraffin-treated placebo mice (n=5 mice).
Data of groups was examined by one-way analysis of variance, and individual groups were then compared with Dunnets test or Students t-test. Data was given as mean±SD, if not stated otherwise. Values of p<0.05 were considered significant.

Which results are given for `CC/C=C\C/C=C\C/C=C\C/C=C\CC/C=C/CSCC(=O)C(F)(F)F` [AVX001]?
Relative oxazolone specific ear swelling, average ([1]; AVX001 0.01% in paraffin): 58%; Absolute oxazolone specific ear swelling, average ([1]; AVX001 0.01% in paraffin): 134 μm; Relative oxazolone specific ear swelling, average ([1]; AVX001 0.05% in paraffin): 43%; Absolute oxazolone specific ear swelling, average ([1]; AVX001 0.05% in paraffin): 103 μm; Relative oxazolone specific ear swelling, average ([1]; AVX001 0.2% in paraffin): 42%; Absolute oxazolone specific ear swelling, average ([1]; AVX001 0.2% in paraffin): 94 μm; reduction of the oxazolone specific ear swelling (result in words) ([1]; all concentrations (0.01%, 0.05%, 0.2%), topical, versus placebo): statistically significant for all concentrations; reduction in ear tissue PGE2 concentration (group IVa PLA2 enzyme): 20%
